Data on 21 compounds can be found in PubChem BioAssay (NCI).

Each structure is given as a SMILES string. Values joined by “and” are separate entries in the source; they are usually repeats but may differ in a detail not shown here. Equal entries are not always repeated.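 Following 48 hours of exposure in 96-well plates, responses at five concentrations were used to interpolate endpoints linearly. GI50 is the concentration that inhibits growth by half. TGI: total growth inhibition.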 A value given as a limit tells only on which side of the number the result lay.

The test system of one experiment is MDA-MB-435. Briefly: inhibition of tumour cell growth, NCI panel, 48 h.
Consider `CC(C)c1ccc(/C=C2/C=C(c3ccc4ccccc4c3)OC2=O)cc1`, for which the TGI was > 100 µM.
On the same count and under the same terms, the value for `COc1cc(/C=C/C(=N\NS(=O)(=O)c2ccc(C)cc2)c2sc(NNC(C)=O)nc2C)ccc1O` was > 100 µM; that for `COc1ccc(/C=C2\CCC(C)C3=C2NC(=S)NC3c2ccc(OC)c(OC)c2)cc1OC` (centres undefined) was > 31.6 µM; that for `NC(=O)C(c1ccccc1)N1OC2C(=O)N(c3ccccc3)C(=O)C2C1c1c2ccccc2c(Cl)c2ccccc12` (centres undefined) was > 100 µM.
On the same count and under the same terms, the value for `CNC(=O)OCC1=C(COC(=O)NC)C(C)N(c2ccc(OC)cc2)C1` (centres undefined) was > 100 µM; that for `N#CC1=C(N)N(c2ccccc2)C(c2ccco2)C1(C#N)C#N` (centres undefined) was 71.8 µM.
Same read-out and setting: the figure for `N=c1n(C(=O)N2CCCC2)c2cc(Cl)ccc2n1C1=NCCN1` is > 100 µM; for `O=C(O)CN(CC(=O)O)C1CCCCC1N(CC(=O)O)CC(=O)NCCN=C=S` (centres undefined) it is > 100 µM.

Another experiment relates to OVCAR-4 ovarian. Briefly: inhibition of tumour cell growth, NCI panel, 48 h.
`C[C@@]12C[C@@H](c3ccccc3O1)N1CCCCSC1=N2`: the TGI is > 100 µM.
Same read-out and setting: the figure for `COc1ccc(N2C(=O)C3c4[nH]c5ccccc5c4C4CCC(C(C)(C)C)CC4C3C2=O)c(C)c1` (centres undefined) is > 100 µM.
The same measure, in the same setting: the figure for `C=C1c2nc3ccccc3n2C=C(c2ccccc2)N1c1ccc([N+](=O)[O-])cc1` is 2.29 µM; for `O=c1[nH]cc(N=Cc2cc(Cl)cc(Cl)c2O)c(=O)[nH]1` it is 57.2 µM.
As to `Cc1c2cnccc2c(C)c2c1c1ccccc1n2CCCN`, the GI50 was 0.0661 µM; the TGI was 0.665 µM and 0.246 µM.
`O=C(NNC(=O)c1ccccc1SSc1ccccc1C(=O)NNC(=O)c1ccccc1S)c1ccccc1S`: the TGI is > 100 µM.
The same measure, in the same setting: the figure for `Cc1ccccc1-n1c(=O)c2ncn(CCCl)c2n(-c2ccccc2C)c1=S` is > 100 µM.
Still for that read-out and setting: the figure for `CC1(C)N=C(/C(Cl)=[N+](/[O-])C(=O)c2ccc(F)cc2)C(C)(C)N1O` is 32.2 µM; for `C(/c1ccco1)=c1/nc(-c2ccccc2)n2c1nc1ccccc12` it is > 100 µM; for `COc1cc2c(cc1OC)C(c1ccccc1CCCCl)=NCC2` it is > 100 µM.
Still for that read-out and setting: the value for `Clc1cc(OC2C3CC4CC(C3)CC2C4)nc(Cl)n1` (centres undefined) was 34.3 µM.
Regarding `Cc1ccc(SCC(CSCCO)OCn2cnc3c2NC(N)=NC32OCCO2)cc1` (centres undefined), the TGI is > 100 µM.
`Cc1cccc(/C=N/NC(=S)Nc2ccccc2)n1`: the TGI is > 90.4 µM.
Take `CC(C)c1ccc(/C=C2/C=C(c3ccc4ccccc4c3)OC2=O)cc1`: the TGI was > 100 µM.
As for `COc1cc(/C=C/C(=N\NS(=O)(=O)c2ccc(C)cc2)c2sc(NNC(C)=O)nc2C)ccc1O`, the TGI was > 100 µM.
Consider `COc1ccc(/C=C2\CCC(C)C3=C2NC(=S)NC3c2ccc(OC)c(OC)c2)cc1OC` (centres undefined), for which the TGI is > 100 µM.
On the same count and under the same terms, the value for `NC(=O)C(c1ccccc1)N1OC2C(=O)N(c3ccccc3)C(=O)C2C1c1c2ccccc2c(Cl)c2ccccc12` (centres undefined) was > 100 µM.
The same measure, in the same setting: the value for `CNC(=O)OCC1=C(COC(=O)NC)C(C)N(c2ccc(OC)cc2)C1` (centres undefined) was > 100 µM.
On the same count and under the same terms, the figure for `N#CC1=C(N)N(c2ccccc2)C(c2ccco2)C1(C#N)C#N` (centres undefined) is 49 µM; for `N=c1n(C(=O)N2CCCC2)c2cc(Cl)ccc2n1C1=NCCN1` it is > 100 µM.

The test system of another experiment is HCC-2998 colon. Put plainly: inhibition of tumour cell growth, NCI panel, 48 h.
In the case of `C[C@@]12C[C@@H](c3ccccc3O1)N1CCCCSC1=N2`, the TGI is > 100 µM.
On to `COc1ccc(N2C(=O)C3c4[nH]c5ccccc5c4C4CCC(C(C)(C)C)CC4C3C2=O)c(C)c1` (centres undefined), for which the TGI was > 100 µM.
The same measure, in the same setting: the value for `C=C1c2nc3ccccc3n2C=C(c2ccccc2)N1c1ccc([N+](=O)[O-])cc1` was > 23.2 µM; that for `O=c1[nH]cc(N=Cc2cc(Cl)cc(Cl)c2O)c(=O)[nH]1` was 95.7 µM.
In the case of `Cc1c2cnccc2c(C)c2c1c1ccccc1n2CCCN`, the GI50 was 0.23 µM; the TGI was 1.83 µM and 0.432 µM.
Take `O=C(NNC(=O)c1ccccc1SSc1ccccc1C(=O)NNC(=O)c1ccccc1S)c1ccccc1S`: the TGI was > 100 µM.
Regarding `Cc1ccccc1-n1c(=O)c2ncn(CCCl)c2n(-c2ccccc2C)c1=S`, the TGI was > 100 µM.
Same read-out and setting: the figure for `CC1(C)N=C(/C(Cl)=[N+](/[O-])C(=O)c2ccc(F)cc2)C(C)(C)N1O` is 35.4 µM; for `COc1cc2c(cc1OC)C(c1ccccc1CCCCl)=NCC2` it is > 100 µM; for `Clc1cc(OC2C3CC4CC(C3)CC2C4)nc(Cl)n1` (centres undefined) it is 4.28 µM.
Regarding `Cc1ccc(SCC(CSCCO)OCn2cnc3c2NC(N)=NC32OCCO2)cc1` (centres undefined), the TGI was > 100 µM.
Still for that read-out and setting: the value for `Cc1cccc(/C=N/NC(=S)Nc2ccccc2)n1` was > 61.6 µM.
Still for that read-out and setting: the figure for `CC(C)c1ccc(/C=C2/C=C(c3ccc4ccccc4c3)OC2=O)cc1` is > 100 µM.
Same read-out and setting: the value for `COc1cc(/C=C/C(=N\NS(=O)(=O)c2ccc(C)cc2)c2sc(NNC(C)=O)nc2C)ccc1O` was > 100 µM.
Regarding `COc1ccc(/C=C2\CCC(C)C3=C2NC(=S)NC3c2ccc(OC)c(OC)c2)cc1OC` (centres undefined), the TGI was > 100 µM.
As for `N#CC1=C(N)N(c2ccccc2)C(c2ccco2)C1(C#N)C#N` (centres undefined), the TGI is 31.3 µM.
Same read-out and setting: the value for `N=c1n(C(=O)N2CCCC2)c2cc(Cl)ccc2n1C1=NCCN1` was > 100 µM.
Consider `O=C(O)CN(CC(=O)O)C1CCCCC1N(CC(=O)O)CC(=O)NCCN=C=S` (centres undefined), for which the TGI is > 100 µM.

For another experiment, the system named is MDA-MB-231 breast. Briefly: inhibition of tumour cell growth, NCI panel, 48 h.
Turning to `C[C@@]12C[C@@H](c3ccccc3O1)N1CCCCSC1=N2`, the TGI was > 100 µM.
For `COc1ccc(N2C(=O)C3c4[nH]c5ccccc5c4C4CCC(C(C)(C)C)CC4C3C2=O)c(C)c1` (centres undefined), the TGI is > 100 µM.
Still for that read-out and setting: the figure for `C=C1c2nc3ccccc3n2C=C(c2ccccc2)N1c1ccc([N+](=O)[O-])cc1` is 14.2 µM; for `O=c1[nH]cc(N=Cc2cc(Cl)cc(Cl)c2O)c(=O)[nH]1` it is > 100 µM; for `Cc1c2cnccc2c(C)c2c1c1ccccc1n2CCCN` it is 0.439 µM.
Still for that read-out and setting: the value for `O=C(NNC(=O)c1ccccc1SSc1ccccc1C(=O)NNC(=O)c1ccccc1S)c1ccccc1S` was > 74.6 µM.
On the same count and under the same terms, the figure for `Cc1ccccc1-n1c(=O)c2ncn(CCCl)c2n(-c2ccccc2C)c1=S` is > 100 µM.
On to `CC1(C)N=C(/C(Cl)=[N+](/[O-])C(=O)c2ccc(F)cc2)C(C)(C)N1O`, for which the TGI is 33.6 µM.
Still for that read-out and setting: the value for `C(/c1ccco1)=c1/nc(-c2ccccc2)n2c1nc1ccccc12` was > 100 µM.
With `COc1cc2c(cc1OC)C(c1ccccc1CCCCl)=NCC2`, the TGI is > 100 µM.
The same measure, in the same setting: the figure for `Clc1cc(OC2C3CC4CC(C3)CC2C4)nc(Cl)n1` (centres undefined) is 27.5 µM; for `Cc1ccc(SCC(CSCCO)OCn2cnc3c2NC(N)=NC32OCCO2)cc1` (centres undefined) it is > 100 µM.
Same read-out and setting: the value for `Cc1cccc(/C=N/NC(=S)Nc2ccccc2)n1` was > 26.1 µM; that for `CC(C)c1ccc(/C=C2/C=C(c3ccc4ccccc4c3)OC2=O)cc1` was > 100 µM.
Same read-out and setting: the value for `COc1cc(/C=C/C(=N\NS(=O)(=O)c2ccc(C)cc2)c2sc(NNC(C)=O)nc2C)ccc1O` was > 100 µM; that for `COc1ccc(/C=C2\CCC(C)C3=C2NC(=S)NC3c2ccc(OC)c(OC)c2)cc1OC` (centres undefined) was > 31.6 µM; that for `NC(=O)C(c1ccccc1)N1OC2C(=O)N(c3ccccc3)C(=O)C2C1c1c2ccccc2c(Cl)c2ccccc12` (centres undefined) was > 100 µM.
Regarding `CNC(=O)OCC1=C(COC(=O)NC)C(C)N(c2ccc(OC)cc2)C1` (centres undefined), the TGI is > 100 µM.
Still for that read-out and setting: the value for `N#CC1=C(N)N(c2ccccc2)C(c2ccco2)C1(C#N)C#N` (centres undefined) was 35.1 µM; that for `N=c1n(C(=O)N2CCCC2)c2cc(Cl)ccc2n1C1=NCCN1` was > 100 µM; that for `O=C(O)CN(CC(=O)O)C1CCCCC1N(CC(=O)O)CC(=O)NCCN=C=S` (centres undefined) was > 100 µM.
